Reference: patent US10919859B2, “Benzylaminopyridylcyclopropanecarboxylic acids, pharmaceutical compositions and uses thereof” (Boehringer Ingelheim International GmbH, priority 2017, dated 2021)

Assays:
human GPR40 receptor = human GPR40 receptor (Homo sapiens (Human), UniProt O14842); assay: IP1 accumulation measurements using the IPOne assay system; assay type: cell-based; conditions: 1321N1 cells stably expressing human GPR40, 1 h at 37° C.
Procedure: IP1 accumulation measurements using the IPOne assay system—1321N1 cells stably expressing human GPR40 receptor (Euroscreen, Belgium) are seeded 24 h before the assay in white 384-well plates in culture medium containing 10% FCS, 1% Na-Pyruvate and 400 μg/mL G418. IP1 is assayed according to the manufacturer's description (Cisbio Bioassays, France). In brief, the assay is started by substitution of the culture medium by stimulation buffer (Hepes 10 mM, CaCl2 1 mM, MgCl2 0.5 mM, KCl 4.2 mM, NaCl 146 mM, glucose 5.5 mM and LiCl 50 mM, pH 7.4). Cells are stimulated for 1 h at 37° C., 5% CO2 by addition of the compounds that are diluted in stimulation buffer containing LiCl. Assays are stopped by adding HTRF-conjugates (IP1-d2 and Anti-IP1 cryptate Tb) and lysis buffer, provided by the manufacturer. After an incubation time of 1 h at room temperature plates are measured using an EnVision™, Perkin Elmer. The obtained fluorescence ratios at 665/615 […] are then used to calculate the pEC50 values using Assay Explorer 3.3 Software (Accelrys, Inc.) by interpolation using an IP1 reference curve and subsequent sigmoidal curve fitting allowing for a variable hill slope.

[1] = Aqueous solubility (buffer vs acetonitrile/water, LC-UV); assay type: physicochemical
Procedure: The aqueous solubility of the compounds of the invention is determined by comparing the amount dissolved in buffer to the amount in an acetonitrile/water (1/1) solution. Starting from a 10 mM DMSO stock solution aliquots are diluted with acetonitrile/water (1/1) or buffer, respectively. After 24 h of shaking, the solutions are filtrated and analyzed by LC-UV. The amount dissolved in buffer is compared to the amount in the acetonitrile solution.

[2] = pH 2.2 buffer, 24 h shaking, 2.5% DMSO, examples in this invention

human GPR40 receptor, sequence (O14842 whole entry): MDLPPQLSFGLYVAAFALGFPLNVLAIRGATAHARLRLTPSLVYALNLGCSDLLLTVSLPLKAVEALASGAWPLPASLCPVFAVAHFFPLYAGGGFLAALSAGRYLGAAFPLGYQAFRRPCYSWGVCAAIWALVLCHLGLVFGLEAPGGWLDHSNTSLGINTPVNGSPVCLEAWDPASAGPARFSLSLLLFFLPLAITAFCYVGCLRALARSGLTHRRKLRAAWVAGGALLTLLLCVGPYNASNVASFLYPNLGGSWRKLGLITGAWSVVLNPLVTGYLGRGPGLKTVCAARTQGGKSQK

Row | Structure (SMILES) | EC50 (human GPR40 receptor) | Solubility at pH value 2.2 [1, 2] | Solubility at pH value 2.2 ([1]; pH 2.2)
1 | Cc1cnc(-c2cc(C)c(-c3ccc(F)c(CNc4ccc([C@H]5C[C@@H]5C(=O)O)nc4)c3)c(C)c2)nc1 [Example 51] | 6 nM | 58 μg/mL | 
2 | COc1cc(OC)c(F)c(-c2ccc(F)c(CNc3ccc([C@H]4C[C@@H]4C(=O)O)nc3)c2)c1F [Example 52] | 836 nM |  | 62 μg/mL
3 | CCc1cccc(CC)c1-c1ccc(F)c(CNc2ccc([C@H]3C[C@@H]3C(=O)O)nc2)c1 [Example 53] | 57 nM | 50 μg/mL | 
4 | Cc1cc(-c2nnn(CC(C)(C)O)n2)cc(C)c1-c1ccc(F)c(CNc2ccc([C@H]3C[C@@H]3C(=O)O)nc2)c1 [Example 54] | 10 nM |  | 81 μg/mL
5 | Cc1cc(-c2ccnn2C)cc(C)c1-c1ccc(F)c(CNc2ccc([C@H]3C[C@@H]3C(=O)O)nc2)c1 [Example 55] | 12 nM |  | 53 μg/mL
6 | Cc1cc(-c2ccn(C)c(=O)n2)cc(C)c1-c1ccc(F)c(CNc2ccc([C@H]3C[C@@H]3C(=O)O)nc2)c1 [Example 56] | 32 nM | 86 μg/mL | 
7 | Cc1cc(C#N)cc(C)c1-c1ccc(F)c(CNc2ccc([C@H]3C[C@@H]3C(=O)O)nc2)c1 [Example 57] | 91 nM |  | 59 μg/mL
